Test results taken from ChEMBL document CHEMBL1221352, “Synthesis and biological activity of flavanone derivatives” (Bioorg Med Chem Lett, 2010).

How the values were obtained:
[1] = tested on: HUVEC; assay: Cytoprotectant activity against H2O2-induced injury in HUVEC cells; type: functional, cell-based, Homo sapiens
[2] = tested on: HL-60; assay: Antitumor activity against human HL60 cells; type: functional; parameters: concentration or dose not given beside the values
[3] = tested on: Bel-7402; assay: Antitumor activity against human Bel7402 cells; type: functional; parameters: concentration or dose not given beside the values
[4] = Inhibition of protein tyrosin kinase
[5] = tested on: BGC-823; assay: Antitumor activity against human BGC823 cells; type: functional; parameters: concentration or dose not given beside the values
[6] = Antivegetative activity against rat VSMC; type: functional, cell-based
[7] = tested on: KB; assay: Antitumor activity against human KB cells; type: functional; parameters: concentration or dose not given beside the values
[8] = Homo sapiens, HUVEC, read-out: EC50

SMILES	EC50 [1, 8]	Activity [2]	Activity [3]	IC50 [4]	Activity [5]	IC50 ([6]; read-out: IC50)	Activity [7]	IC50 ([4]; read-out: IC50)	IC50 [6]	EC50 ([1]; huvec)
Cc1c(O)c(C)c2c(c1O)C(=O)CC(c1ccco1)O2 (centres undefined)	> 20 µM	12.96%	3.27%	Not Active	-9.68%	6.7 µM	-26.34%	–	–	–
COc1ccccc1C1CC(=O)c2c(O)c(C)c(O)c(C)c2O1 (centres undefined)	> 20 µM	–	–	–	–	–	–	> 100 µM	Not Active	–
Cc1c(O)c(C)c2c(c1O)C(=O)CC(c1ccccc1Cl)O2 (centres undefined)	> 20 µM	2.94%	18.7%	–	36.98%	> 20 µM	28.63%	> 50 µM	–	–
Cc1c(O)c(C)c2c(c1O)C(=O)CC(c1ccc(O)c(O)c1)O2 (centres undefined) [CYRTOMINETIN]	> 20 µM	-4.85%	-7.68%	–	-19.81%	–	45.3%	> 50 µM	Not Active	–
Cc1c(O)c(C)c2c(c1O)C(=O)CC(c1ccc([N+](=O)[O-])cc1)O2 (centres undefined)	> 20 µM	-0.46%	2.05%	Not Active	-7.41%	–	-9.11%	–	Not Active	–
Cc1c(O)c(C)c2c(c1O)C(=O)C[C@@H](c1ccccc1)O2 [DEMETHOXYMATTEUCINOL]	–	–	2.63%	–	13.51%	> 100 µM	3.64%	–	–	Not Active
Cc1c(O)c(C)c2c(c1O)C(=O)CC(c1ccccc1[N+](=O)[O-])O2 (centres undefined)	> 5 µM	-6.16%	27.18%	–	52%	9.9 µM	29.04%	> 50 µM	–	–
Cc1c(O)c(C)c2c(c1O)C(=O)CC(c1cccc(O)c1)O2 (centres undefined)	> 20 µM	-4.04%	-5.48%	–	-7.6%	–	28.66%	51 µM	Not Active	–
Cc1c(O)c(C)c2c(c1O)C(=O)CC(c1ccsc1)O2 (centres undefined)	> 50 µM	10.82%	11.59%	Not Active	50.71%	–	16.07%	–	Not Active	–
Cc1c(O)c(C)c2c(c1O)C(=O)CC(c1ccccc1O)O2 (centres undefined)	> 20 µM	-6.47%	-1.8%	–	-6.69%	–	44.54%	55 µM	Not Active	–
COc1cc(O)ccc1C1CC(=O)c2c(O)c(C)c(O)c(C)c2O1 (centres undefined)	> 20 µM	-1.29%	2.54%	–	4.85%	> 100 µM	-18.83%	> 200 µM	–	–
Cc1c(O)c(C)c2c(c1O)C(=O)CC(c1c[nH]c3ccccc13)O2 (centres undefined)	> 10 µM	11.39%	6.45%	Not Active	1.67%	–	10.47%	–	Not Active	–
COc1ccc(C2CC(=O)c3c(O)c(C)c(O)c(C)c3O2)c(OC)c1 (centres undefined)	–	–	–	Not Active	–	–	–	–	Not Active	Not Active
Cc1c(O)c(C)c2c(c1O)C(=O)CC(c1ccc(O)cc1)O2 (centres undefined)	> 20 µM	-3.37%	-6.53%	–	-23.52%	–	-7.21%	> 200 µM	Not Active	–
O=c1c(-c2ccc(O)cc2)coc2cc(O)cc(O)c12 [GENISTEIN]	–	–	–	–	–	–	–	13.6 µM	–	–
Cc1c(O)c(C)c2c(c1O)C(=O)CC(c1ccc(Cl)cc1)O2 (centres undefined)	> 50 µM	7.65%	-7.1%	Not Active	-22.45%	–	15.89%	–	Not Active	–
COc1ccc(C2CC(=O)c3c(O)c(C)c(O)c(C)c3O2)cc1 (centres undefined)	–	8.52%	15.15%	–	-28.89%	> 100 µM	-11.99%	> 100 µM	–	Not Active
COc1ccc2cc1Oc1ccc(cc1)C[C@H]1c3cc(c(OC)cc3CCN1C)Oc1c(OC)c(OC)cc3c1[C@H](C2)N(C)CC3 [FANCHININ]	–	–	–	–	–	1.48 µM	–	–	–	–
